How the values were obtained:
Type in all cases: in vivo
[1] = tested on: Kochia (Kochia scoparia); experiment: Test A preemergence; settings: for Plant response rating, Kochia: 125 g ai/ha, preemergence, 0 to 100 scale (0 no effect, 100 complete control); for Kochia plant response rating (0 to 100 scale, 0 is no effect, 100 is complete control): Preemergence, 500 g ai/ha, visual injury approx. 10 d
Method in brief: (§1)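 Preemergence soil spray on seeded pots or post-emergence spray on 1–2 leaf plants, in loam–sand blend. Greenhouse ~10 d. Visual rating 0–100 against untreated plants.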

[2] = tested on: barnyardgrass (Echinochloa crus-galli); experiment: Test A preemergence; settings: for Plant response rating, Barnyardgrass: 125 g ai/ha, preemergence, 0 to 100 scale (0 no effect, 100 complete control); for Barnyardgrass plant response rating (0 to 100 scale, 0 is no effect, 100 is complete control): Preemergence, 500 g ai/ha, visual injury approx. 10 d
Method in brief: as §1

[3] = tested on: giant foxtail (Setaria faberii); experiment: Test A preemergence; settings: for Plant response rating, Foxtail, Giant: 125 g ai/ha, preemergence, 0 to 100 scale (0 no effect, 100 complete control); for Foxtail, Giant plant response rating (0 to 100 scale, 0 is no effect, 100 is complete control): Preemergence, 500 g ai/ha, visual injury approx. 10 d
Method in brief: as §1

[4] = tested on: pigweed (Amaranthus retroflexus); experiment: Test A preemergence; settings: for Plant response rating, Pigweed: 125 g ai/ha; for Pigweed plant response rating (0 to 100 scale, 0 is no effect, 100 is complete control): 500 g ai/ha, visual injury approx. 10 d
[5] = tested on: ryegrass, Italian (Italian ryegrass, Lolium multiflorum); experiment: Test A preemergence; settings: for Plant response rating, Ryegrass, Italian: 125 g ai/ha; for Ryegrass, Italian plant response rating (0 to 100 scale, 0 is no effect, 100 is complete control): 500 g ai/ha, visual injury approx. 10 d
Method in brief: as §1

[6] = tested on: ragweed (common ragweed, Ambrosia elatior); experiment: Test A preemergence; settings: for Plant response rating, Ragweed: 125 g ai/ha; for Ragweed plant response rating (0 to 100 scale, 0 is no effect, 100 is complete control): 500 g ai/ha, visual injury approx. 10 d
Method in brief: as §1

[7] = tested on: barnyardgrass (Echinochloa crus-galli); experiment: Test B flooded paddy test; settings: Flood, 0 to 100 scale where 0 is no effect and 100 is complete control, 13 to 15 d
Method in brief: (§2)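 Visual ratings (0 none to 100 complete control) are relative to untreated plants, taken 13–15 d after treatment in a greenhouse. Test material went straight into floodwater standing 3 cm above the soil, kept constant, on plants at the 2-leaf stage.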

[8] = tested on: sedge, umbrella (small-flower umbrella sedge, Cyperus difformis); experiment: Test B flooded paddy test; settings: Flood, 0 to 100 scale where 0 is no effect and 100 is complete control, 13 to 15 d
Method in brief: as §2

[9] = tested on: rice (Oryra sativa); experiment: Test B flooded paddy test; settings: Flood, 0 to 100 scale where 0 is no effect and 100 is complete control, 13 to 15 d
Method in brief: as §2

[10] = tested on: ducksalad (Heteranthera limosa); experiment: Test B flooded paddy test; settings: Flood, 0 to 100 scale where 0 is no effect and 100 is complete control, 13 to 15 d
Method in brief: as §2

[11] = tested on: corn (Zea mays); experiment: Test A postemergence; settings: postemergence; for Corn plant response rating: 125 g ai/ha, visual injury rating on 0 to 100 scale (0 no effect, 100 complete control), approx. 10 d; for Plant response rating, Corn: 500 g ai/ha, 0 to 100 scale, 0 no effect, 100 complete control
Method in brief: as §1

[12] = tested on: Kochia (Kochia scoparia); experiment: Test A postemergence; settings: for Kochia plant response rating: 125 g ai/ha, visual injury rating on 0 to 100 scale (0 no effect, 100 complete control), approx. 10 d; for Plant response rating, Kochia: 500 g ai/ha
Method in brief: as §1

[13] = tested on: barnyardgrass (Echinochloa crus-galli); experiment: Test A postemergence; settings: postemergence; for Barnyardgrass plant response rating: 125 g ai/ha, visual injury rating on 0 to 100 scale (0 no effect, 100 complete control), approx. 10 d; for Plant response rating, Barnyardgrass: 500 g ai/ha, 0 to 100 scale, 0 no effect, 100 complete control
Method in brief: as §1

[14] = tested on: Galium (catchweed bedstraw, Galium aparine); experiment: Test A postemergence; settings: for Galium plant response rating: 125 g ai/ha, visual injury rating on 0 to 100 scale (0 no effect, 100 complete control), approx. 10 d; for Plant response rating, Galium: 500 g ai/ha
Method in brief: as §1

[15] = tested on: giant foxtail (Setaria faberii); experiment: Test A postemergence; settings: for Foxtail, Giant plant response rating: 125 g ai/ha, visual injury rating on 0 to 100 scale (0 no effect, 100 complete control), approx. 10 d; for Plant response rating, Foxtail, Giant: 500 g ai/ha
Method in brief: as §1

[16] = tested on: pigweed (Amaranthus retroflexus); experiment: Test A postemergence; settings: for Pigweed plant response rating: 125 g ai/ha, visual injury rating on 0 to 100 scale (0 no effect, 100 complete control), approx. 10 d; for Plant response rating, Pigweed: 500 g ai/ha
Method in brief: as §1

[17] = tested on: wheat (Triticum aestivum); experiment: Test A postemergence; settings: for Wheat plant response rating: 125 g ai/ha, visual injury rating on 0 to 100 scale (0 no effect, 100 complete control), approx. 10 d; for Plant response rating, Wheat: 500 g ai/ha
Method in brief: as §1

[18] = tested on: ryegrass, Italian (Italian ryegrass, Lolium multiflorum); experiment: Test A postemergence; settings: for Ryegrass, Italian plant response rating: 125 g ai/ha, visual injury rating on 0 to 100 scale (0 no effect, 100 complete control), approx. 10 d; for Plant response rating, Ryegrass, Italian: 500 g ai/ha
Method in brief: as §1

[19] = tested on: ragweed (common ragweed, Ambrosia elatior); experiment: Test A postemergence; settings: for Ragweed plant response rating: 125 g ai/ha, visual injury rating on 0 to 100 scale (0 no effect, 100 complete control), approx. 10 d; for Plant response rating, Ragweed: 500 g ai/ha
Method in brief: as §1

[20] = tested on: blackgrass (Alopecurus myosuroides); experiment: Test A postemergence; settings: postemergence; for Blackgrass plant response rating: 125 g ai/ha, visual injury rating on 0 to 100 scale (0 no effect, 100 complete control), approx. 10 d; for Plant response rating, Blackgrass: 500 g ai/ha, 0 to 100 scale, 0 no effect, 100 complete control
Method in brief: as §1

[21] = preemergence, 0 to 100 scale (0 no effect, 100 complete control)
[22] = postemergence, 0 to 100 scale, 0 no effect, 100 complete control
[23] = Preemergence, visual injury after approximately 10 d, 0 to 100 scale where 0 is no effect and 100 is complete control
[24] = Postemergence, 0 to 100 scale where 0 is no effect and 100 is complete control

Row | Compound | Plant response rating, Kochia [1] | Kochia plant response rating (0 to 100 scale, 0 is no effect, 100 is complete control) [1] | Plant response rating, Barnyardgrass [2] | Barnyardgrass plant response rating (0 to 100 scale, 0 is no effect, 100 is complete control) [2] | Plant response rating, Foxtail, Giant [3] | Foxtail, Giant plant response rating (0 to 100 scale, 0 is no effect, 100 is complete control) [3] | Pigweed plant response rating (0 to 100 scale, 0 is no effect, 100 is complete control) ([4]; Preemergence) | Ryegrass, Italian plant response rating (0 to 100 scale, 0 is no effect, 100 is complete control) ([5]; Preemergence) | Ragweed plant response rating (0 to 100 scale, 0 is no effect, 100 is complete control) ([6]; Preemergence) | Corn plant response rating [11] | Plant response rating, Corn [11] | Kochia plant response rating ([12]; postemergence) | Barnyardgrass plant response rating [13] | Plant response rating, Barnyardgrass [13] | Galium plant response rating ([14]; postemergence) | Foxtail, Giant plant response rating ([15]; postemergence) | Pigweed plant response rating ([16]; postemergence) | Wheat plant response rating ([17]; postemergence) | Ryegrass, Italian plant response rating ([18]; postemergence) | Ragweed plant response rating ([19]; postemergence) | also measured
1 | CN1CC(c2ccc3c(c2)OC(F)(F)O3)C(C(=O)Nc2ccccc2F)C1=O (stereo not drawn) [Compound 441] | 70 | 80 | 90 | 90 | 90 | 90 | 70 | 80 | 80 | 60 | 70 | 40 | 80 | 90 | 50 | 80 | 40 | 50 | 60 | 20 | Plant response rating, Pigweed [4, 21]: 50; Plant response rating, Ryegrass, Italian [5, 21]: 70; Plant response rating, Ragweed [6, 21]: 30; Plant response rating, Barnyardgrass ([7]; 250 g ai/ha): 70; Plant response rating, Sedge, Umbrella ([8]; 250 g ai/ha): 0; Plant response rating, Rice ([9]; 250 g ai/ha): 0; Plant response rating, Ducksalad ([10]; 250 g ai/ha): 90; Plant response rating, Kochia [12, 22]: 70; Plant response rating, Galium [14, 22]: 50; Plant response rating, Foxtail, Giant [15, 22]: 80; Plant response rating, Pigweed [16, 22]: 60; Plant response rating, Wheat [17, 22]: 80; Plant response rating, Ryegrass, Italian [18, 22]: 60; Plant response rating, Ragweed [19, 22]: 50; Blackgrass plant response rating [20]: 50; Plant response rating, Blackgrass [20]: 80
2 | O=C1NCC(c2cccc(OCC(F)F)c2)C1C(=O)Nc1ccc(F)c(F)c1F (stereo not drawn) [Compound 407] | 0 | 0 | 70 | 80 | 80 | 90 | 20 | 0 | 0 | 0 | 40 | 0 | 60 | 70 | 0 | 70 | 0 | 0 | 0 | 0 | Plant response rating, Pigweed [4, 21]: 0; Plant response rating, Ryegrass, Italian [5, 21]: 0; Plant response rating, Ragweed [6, 21]: 0; Plant response rating, Barnyardgrass ([7]; 500 g ai/ha): 60; Plant response rating, Sedge, Umbrella ([8]; 500 g ai/ha): 0; Plant response rating, Rice ([9]; 500 g ai/ha): 10; Plant response rating, Ducksalad ([10]; 500 g ai/ha): 100; Plant response rating, Kochia [12, 22]: 40; Plant response rating, Galium [14, 22]: 0; Plant response rating, Foxtail, Giant [15, 22]: 70; Plant response rating, Pigweed [16, 22]: 0; Plant response rating, Wheat [17, 22]: 0; Plant response rating, Ryegrass, Italian [18, 22]: 0; Plant response rating, Ragweed [19, 22]: 0; Blackgrass plant response rating [20]: 30; Plant response rating, Blackgrass [20]: 50
3 | CN1CC(c2ccc(C(F)(F)F)cc2F)C(C(=O)Nc2ccccc2S(C)(=O)=O)C1=O (stereo not drawn) [Compound 473] | 80 | 80 | 80 | 100 | 90 | 100 | 90 | 90 | 70 | 0 | 40 | 40 | 90 | 90 | 60 | 70 | 50 | 0 | 0 | 50 | Plant response rating, Pigweed [4, 23]: 80; Plant response rating, Ryegrass, Italian [5, 23]: 0; Plant response rating, Ragweed [6, 23]: 20; Plant response rating, Barnyardgrass ([7]; 250 g ai/ha): 40; Plant response rating, Sedge, Umbrella ([8]; 250 g ai/ha): 0; Plant response rating, Rice ([9]; 250 g ai/ha): 20; Plant response rating, Ducksalad ([10]; 250 g ai/ha): 75; Plant response rating, Kochia [12, 24]: 80; Plant response rating, Galium [14, 24]: 60; Plant response rating, Foxtail, Giant [15, 24]: 90; Plant response rating, Pigweed [16, 24]: 90; Plant response rating, Wheat [17, 24]: 40; Plant response rating, Ryegrass, Italian [18, 24]: 40; Plant response rating, Ragweed [19, 24]: 50; Blackgrass plant response rating [20]: 40; Plant response rating, Blackgrass [20]: 60

From US12077503B2, “Substituted cyclic amides and their use as herbicides” (FMC CORPORATION, priority 2015, dated 2024)
